Source: patent US10441601B2, “Method for treating schizophrenia” (St. Jude Children's Research Hospital, Inc., priority 2015, dated 2019)

Test system: TC projections to the ACx
Experiment: Whole-cell recordings of TC EPSCs in acute thalamocortical slices, bath application of antipsychotics / Drd2 antagonist
Type: cell-based, mouse
Protocol: Acute primary thalamocortical (TC) slices (400-μm thick) containing the left auditory cortex (ACx) and the left ventral part of the medial geniculate nuclei (MGv) of the thalamus were prepared as previously described^5. […] Primary TC slices were obtained from the left hemisphere by using a slicing angle of 15°.
Whole-cell recordings were obtained from cell bodies of layer (L) 3/4 thalamorecipient neurons in the ACx and thalamic-relay neurons in the MGv. Mice were chosen in a pseudorandom order, without the experimenter's prior knowledge of genotype or treatments. […] Voltage-clamp recordings were made using a Multiclamp 700B (Molecular Devices, Sunnyvale Calif.), digitized (10 kHz), and recorded using the pCLAMP 10.0 software (Molecular Devices, Sunnyvale Calif.). EPSCs were recorded at holding membrane potentials of −70 mV. In all experiments, membrane potentials were corrected for a liquid junction potential of −10 mV. TC excitatory postsynaptic currents (EPSCs) were evoked by current pulses (duration, 100 μs) delivered to the thalamic radiation via tungsten bipolar electrodes. Paired-pulse ratio (PPR) of TC and corticocortical (CC) EPSCs and the NMDAR/AMPAR ratio were measured as described previously^39. To ensure consistent access resistance of the recording electrode during long-term experiments, the peak amplitude of a brief (10-ms) hyperpolarizing test pulse (−5 mV) was monitored, which was given 250 ms after a stimulus. Access resistance (Ra) in recorded neurons was typically 10 to 25 MO.
Acute primary thalamocortical (TC) slices (400 µm thick) containing the auditory cortex (ACx) and the ventral part of the medial geniculate nuclei (MGv) of the thalamus were prepared as previously described^6. […] Primary TC slices were obtained from the left hemisphere by using a slicing angle of 15°.
Whole-cell recordings were obtained from cell bodies of layer (L) 3/4 thalamorecipient neurons in the ACx and thalamic-relay neurons in the MGv. […] Voltage-clamp recordings were made using a Multiclamp 700B, digitized (10 kHz), and recorded using the pCLAMP 10.0 software. EPSCs were recorded at holding membrane potentials of −70 mV. In all experiments, membrane potentials were corrected for a liquid junction potential of −10 mV. TC EPSCs were evoked by current pulses (duration, 100 […]s) delivered to the thalamic radiation via tungsten bipolar electrodes. To ensure consistent access resistance of the recording electrode during long-term experiments, the peak amplitude of a brief (10-ms) hyperpolarizing test pulse (−5 mV) was monitored given 250 ms after a stimulus. Access resistance (Ra) in recorded neurons was typically 10 to 25 MΩ.
In brief, the thalamic radiation of WT mice was stimulated to evoke TC EPSCs with a rise slope of approximately 100 pA/ms. The effect of the antipsychotic agent haloperidol on TC EPSC 30 minutes after its bath application was compared to the preapplication baseline TC EPSC (AH).

OC1(c2ccc(Cl)cc2)CCN(Cc2c[nH]c3ccccc23)CC1 [L-741,626]
Effect on TC EPSCs (4-month-old miR-338+/− mice, L-741,626 20 nM): substantially increased

O=C(CCCN1CCC(O)(c2ccc(Cl)cc2)CC1)c1ccc(F)cc1 [haloperidol]
Effect on TC EPSCs, haloperidol alone (4-month-old miR-338+/− mice): increased TC EPSCs
Further effect on TC EPSCs after L-741,626 (4-month-old miR-338+/− mice, haloperidol applied on top of L-741,626 20 nM): not further elevated
Sensitivity of TC EPSCs to haloperidol (Df(16)1/+ mice 2 months or younger): not sensitive to haloperidol
Sensitivity of TC projections to haloperidol (Df(16)1/+ mice, age dependence, haloperidol 1 μM): became sensitive to haloperidol (1 µM) only at 3 months of age
Sensitivity of TC projections to haloperidol (Dgcr8+/− mice older than 3 months): sensitive to haloperidol at older than 3 months of age
Sensitivity of TC projections to haloperidol (WT mice, 1.5 to 7 months): not haloperidol-sensitive at any age
Sensitivity of TC projections to haloperidol, age dependence (miR-338+/− mice, 1.5 to 4 months): sensitive to haloperidol in an age-independent manner
Effect on deficit of TC EPSCs (smaller TC EPSCs vs WT) (older Df(16)1/+ mice, haloperidol 1 μM, 30 minutes after bath application): rescued that deficit
Sensitivity of TC projections to haloperidol (younger Dgcr8+/− mice): not sensitive to haloperidol
